This note sets out measurements from ChEMBL document CHEMBL3808336, “Pyrazolylbenzo[d]imidazoles as new potent and selective inhibitors of carbonic anhydrase isoforms hCA IX and XII” (Bioorg Med Chem, 2016).

One experiment concerns the target Carbonic anhydrase 1 (Homo sapiens, UniProt P00915). Nature of the experiment: Inhibition of recombinant human carbonic anhydrase 1 preincubated for 15 min to 72 hrs by stopped flow CO2 hydrase assay.
The next experiment has as its target Carbonic anhydrase 9 (Homo sapiens, UniProt Q16790). Nature of the experiment: Inhibition of recombinant human carbonic anhydrase 9 preincubated for 15 min to 72 hrs by stopped flow CO2 hydrase assay.
The target of a further experiment is Carbonic anhydrase 2 (Homo sapiens, UniProt P00918). Nature of the experiment: Inhibition of recombinant human carbonic anhydrase 2 preincubated for 15 min to 72 hrs by stopped flow CO2 hydrase assay.

The Ki is the dissociation constant of the complex between target and ligand, obtained from inhibition or displacement.

The structures appear in SMILES notation.

Carbonic anhydrase 1, sequence (P00915 whole entry): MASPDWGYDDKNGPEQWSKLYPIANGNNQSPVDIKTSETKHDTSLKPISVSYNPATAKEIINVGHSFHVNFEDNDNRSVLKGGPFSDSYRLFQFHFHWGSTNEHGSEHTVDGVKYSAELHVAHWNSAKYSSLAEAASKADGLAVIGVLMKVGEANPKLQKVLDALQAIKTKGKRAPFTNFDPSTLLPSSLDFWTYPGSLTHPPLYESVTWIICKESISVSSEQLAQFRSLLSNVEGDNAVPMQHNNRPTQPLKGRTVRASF

Regarding `c1ccc(-c2nn(-c3ccccc3)cc2-c2nc3ccccc3[nH]2)cc1`, the values for the Ki on Carbonic anhydrase 1, on Carbonic anhydrase 9 and at Carbonic anhydrase 2 were greater than 40000 nM, 55.9 nM and greater than 40000 nM, respectively.
`Fc1ccc(-c2nn(-c3ccccc3)cc2-c2nc3ccccc3[nH]2)cc1`: the Ki at Carbonic anhydrase 1 and at Carbonic anhydrase 2 was greater than 40000 nM in each case.
On to `Clc1ccc(-c2nn(-c3ccccc3)cc2-c2nc3ccccc3[nH]2)cc1`, for which the inhibition constant (Ki) is greater than 40000 nM at Carbonic anhydrase 1, 7.5 nM at Carbonic anhydrase 9 and greater than 40000 nM on Carbonic anhydrase 2.
Turning to `COc1ccc(-c2nn(-c3ccccc3)cc2-c2nc3ccccc3[nH]2)cc1`, the Ki at Carbonic anhydrase 1 was greater than 40000 nM; on Carbonic anhydrase 9, 48.7 nM; on Carbonic anhydrase 2 it was greater than 40000 nM.
For the compound `NS(=O)(=O)c1ccc(-n2cc(-c3nc4ccccc4[nH]3)c(-c3ccc(Cl)cc3)n2)cc1`, the Ki on Carbonic anhydrase 9 worked out at 70.2 nM.
With `NS(=O)(=O)c1ccc(-n2cc(-c3nc4ccccc4[nH]3)c(-c3ccc(F)cc3)n2)cc1`, on Carbonic anhydrase 9, the inhibition constant Ki came to 74.7 nM.
On the same count and under the same terms, as for `NS(=O)(=O)c1ccc(-n2cc(-c3nc4ccccc4[nH]3)c(-c3ccccc3)n2)cc1`, the figure is 24.9 nM.
Same read-out and setting: as for `NS(=O)(=O)c1ccc(-n2cc(-c3nc4ccccc4[nH]3)c(-c3ccc(Br)cc3)n2)cc1`, the figure is 641 nM.
As for `Cc1ccc(-c2nn(-c3ccccc3)cc2-c2nc3ccccc3[nH]2)cc1`, the Ki on Carbonic anhydrase 1 is greater than 40000 nM; at Carbonic anhydrase 9 it was 23.3 nM; at Carbonic anhydrase 2, greater than 40000 nM.
For the compound `Brc1ccc(-c2nn(-c3ccccc3)cc2-c2nc3ccccc3[nH]2)cc1`, the Ki was 55.1 nM at Carbonic anhydrase 9 and greater than 40000 nM on Carbonic anhydrase 2.
Consider `COc1ccc(-c2nn(-c3ccc(S(N)(=O)=O)cc3)cc2-c2nc3ccccc3[nH]2)cc1`, for which, at Carbonic anhydrase 9, the Ki is 554 nM.
